Results taken from patent US10501425B2, “Microbiocidal oxadiazole derivatives” (SYNGENTA PARTICIPATIONS AG, priority 2015, dated 2019).

Key:
Uromyces viciae-fabae = Uromyces viciae-fabae / field bean / leaf disc preventative (faba-bean rust); assay type: in vivo; details: foliar, 288 h, 100 ppm in the applied formulation, field bean leaf discs, compared to untreated, read-out: disease control
Method: Leaf disks or leaf segments of various plant species are cut from plants grown in a greenhouse. The cut leaf disks or segments are placed in multiwell plates (24-well format) onto water agar. The leaf disks are sprayed with a test solution before (preventative) or after (curative) inoculation. Compounds to be tested are prepared as DMSO solutions (max. 10 mg/ml) which are diluted to the appropriate concentration with 0.025% Tween20 just before spraying. The inoculated leaf disks or segments are incubated under defined conditions (temperature, relative humidity, light, etc.) according to the respective test system. A single evaluation of disease level is carried out 3 to 14 days after inoculation, depending on the pathosystem. Percent disease control relative to the untreated check leaf disks or segments is then calculated. Field bean leaf discs are placed on water agar in multiwell plates (96-well format) and 10 μl of the formulated test compound diluted in acetone and a spreader pipetted onto the leaf disc. Two hours after application leaf discs are inoculated by spraying a spore suspension on the lower leaf surface. The leaf discs are incubated in a climate cabinet at 22° C. with 18 hour light/day and 70% relative humidity. The activity of a compound is assessed as percent disease control compared to untreated when an appropriate level of disease damage appears in untreated check leaf disks (12 days after application). The following compounds at 100 ppm in the applied formulation give at least 80% disease control in this test when compared to untreated control leaf discs under the same conditions, which show extensive disease development.

Phakopsora pachyrhizi = Phakopsora pachyrhizi / soybean / leaf disc preventative (Asian soybean rust); assay type: in vivo; details: foliar, 200 ppm in the applied formulation, soybean leaf disks, compared to untreated, read-out: disease control
Procedure, shortened: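 Read-out is percent disease control relative to untreated check discs, assessed once untreated discs show adequate disease, 12 to 14 days after application. Compounds, tested at 200 ppm in the applied formulation, are sprayed onto soybean leaf discs one day before inoculation with a spore suspension.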

[1] = tested on: Puccinia recondita f. Sp. Tritici; assay: Puccinia recondita f. sp. tritici / wheat / leaf disc preventative (brown rust); assay type: in vivo; details: foliar, 200 ppm in the applied formulation, wheat leaf segments cv. Kanzler, preventative (inoculated 1 day after application), compared to untreated, read-out: disease control
Procedure, shortened: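 Compound, diluted from DMSO solution into aqueous 0.025% Tween20, is sprayed at 200 ppm onto cut wheat segments (cv. Kanzler) placed on water agar. One day on, segments receive a fungal spore suspension and are incubated at 19° C., 75% rh, 12 h photoperiod, with % control vs untreated scored at 7–9 days.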

[2] = tested on: Puccinia recondita f. Sp. Tritici; assay: Puccinia recondita f. sp. tritici / wheat / leaf disc curative (brown rust); assay type: in vivo; details: foliar, 24 h, 200 ppm in the applied formulation, wheat leaf segments cv. Kanzler, curative (applied 1 day after inoculation), compared to untreated, read-out: disease control
Procedure, shortened: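 Curative test: wheat leaf segments cv. Kanzler on agar inoculated with spore suspension, kept dark at 19 °C/75% RH, then sprayed 1 day post-inoculation with compound diluted in water. Incubated at 19 °C, 75% RH, 12 h light/dark; percent disease control versus untreated scored 6–8 days after application.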

[3] = tested on: Glomerella lacenarium (Colletotrichum lagenarium); assay: Glomerella lagenarium liquid culture / cucumber / preventative (anthracnose); assay type: cell-based; details: Colletotrichum orbiculare; 20 ppm in the applied formulation; liquid culture (PDB), growth inhibition measured photometrically 3 to 4 days after application; compared to untreated; read-out: disease control
Procedure, shortened: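 Conidia from cryogenic storage were mixed into potato dextrose broth. This was added to compound diluted from DMSO into 0.025% Tween20, tested at 20 ppm. Plates were incubated in the dark at 24 °C and 96% relative humidity, and growth was read photometrically after 2–7 days as % activity versus untreated check.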

CCC(=O)NCc1ccc(-c2noc(C(F)(F)F)n2)cc1 [Compound 1.1, N-[[4-[5-(trifluoromethyl)-1,2,4-oxadiazol-3-yl]phenyl]methyl]propanamide]
≥ 80%: pest or weed control at 100 ppm (Uromyces viciae-fabae) | pest or weed control at 200 ppm (Phakopsora pachyrhizi) | pest or weed control at 200 ppm [1] | pest or weed control at 200 ppm [2] | inhibition of growth at 20 ppm [3]

CC(C)(C)C(=O)NCc1ccc(-c2noc(C(F)(F)F)n2)cc1 [Compound 1.2, 2,2-dimethyl-N-[[4-[5-(trifluoromethyl)-1,2,4-oxadiazol-3-yl]phenyl]methyl]propanamide]
120 to 127 °C: melting point
≥ 80%: pest or weed control at 100 ppm (Uromyces viciae-fabae) | pest or weed control at 200 ppm (Phakopsora pachyrhizi) | pest or weed control at 200 ppm [1] | pest or weed control at 200 ppm [2] | inhibition of growth at 20 ppm [3]

C#CC(C)(C)C(=O)NCc1ccc(-c2noc(C(F)(F)F)n2)cc1 [Compound 1.3, 2,2-dimethyl-N-[[4-[5-(trifluoromethyl)-1,2,4-oxadiazol-3-yl]phenyl]methyl]but-3-ynamide]
55 to 60 °C: melting point
≥ 80%: pest or weed control at 100 ppm (Uromyces viciae-fabae) | pest or weed control at 200 ppm (Phakopsora pachyrhizi) | pest or weed control at 200 ppm [1] | pest or weed control at 200 ppm [2] | inhibition of growth at 20 ppm [3]

C#CCCC(=O)NCc1ccc(-c2noc(C(F)(F)F)n2)cc1 [Compound 1.5, N-[[4-[5-(trifluoromethyl)-1,2,4-oxadiazol-3-yl]phenyl]methyl]pent-4-ynamide]
≥ 80%: pest or weed control at 100 ppm (Uromyces viciae-fabae) | pest or weed control at 200 ppm (Phakopsora pachyrhizi) | pest or weed control at 200 ppm [1] | pest or weed control at 200 ppm [2] | inhibition of growth at 20 ppm [3]

COCCC(=O)NCc1ccc(-c2noc(C(F)(F)F)n2)cc1 [Compound 1.11, 3-methoxy-N-[[4-[5-(trifluoromethyl)-1,2,4-oxadiazol-3-yl]phenyl]methyl]propanamide]
≥ 80%: pest or weed control at 100 ppm (Uromyces viciae-fabae) | pest or weed control at 200 ppm (Phakopsora pachyrhizi) | pest or weed control at 200 ppm [1] | inhibition of growth at 20 ppm [3]

CC(C)(CCl)C(=O)NCc1ccc(-c2noc(C(F)(F)F)n2)cc1 [Compound 1.13, 3-chloro-2,2-dimethyl-N-[[4-[5-(trifluoromethyl)-1,2,4-oxadiazol-3-yl]phenyl]methyl]propanamide]
≥ 80%: pest or weed control at 100 ppm (Uromyces viciae-fabae) | pest or weed control at 200 ppm (Phakopsora pachyrhizi) | pest or weed control at 200 ppm [1] | pest or weed control at 200 ppm [2] | inhibition of growth at 20 ppm [3]

C=C(C)C(=O)NCc1ccc(-c2noc(C(F)(F)F)n2)cc1 [Compound 1.16, 2-methyl-N-[[4-[5-(trifluoromethyl)-1,2,4-oxadiazol-3-yl]phenyl]methyl]prop-2-enamide]
≥ 80%: pest or weed control at 100 ppm (Uromyces viciae-fabae) | pest or weed control at 200 ppm (Phakopsora pachyrhizi) | pest or weed control at 200 ppm [1] | inhibition of growth at 20 ppm [3]

O=C(CCCCC(F)(F)F)NCc1ccc(-c2noc(C(F)(F)F)n2)cc1 [Compound 1.18, 6,6,6-trifluoro-N-[[4-[5-(trifluoromethyl)-1,2,4-oxadiazol-3-yl]phenyl]methyl]hexanamide]
≥ 80%: pest or weed control at 100 ppm (Uromyces viciae-fabae) | pest or weed control at 200 ppm (Phakopsora pachyrhizi) | pest or weed control at 200 ppm [1]

CCC(COC)C(=O)NCc1ccc(-c2noc(C(F)(F)F)n2)cc1 (centres unmarked) [Compound 1.19, 2-(methoxymethyl)-N-[[4-[5-(trifluoromethyl)-1,2,4-oxadiazol-3-yl]phenyl]methyl]butanamide]
≥ 80%: pest or weed control at 100 ppm (Uromyces viciae-fabae) | pest or weed control at 200 ppm (Phakopsora pachyrhizi) | pest or weed control at 200 ppm [1] | pest or weed control at 200 ppm [2] | inhibition of growth at 20 ppm [3]

N#CCC(=O)NCc1ccc(-c2noc(C(F)(F)F)n2)cc1 [Compound 1.22, 2-cyano-N-[[4-[5-(trifluoromethyl)-1,2,4-oxadiazol-3-yl]phenyl]methyl]acetamide]
≥ 80%: pest or weed control at 100 ppm (Uromyces viciae-fabae) | pest or weed control at 200 ppm (Phakopsora pachyrhizi) | pest or weed control at 200 ppm [1] | pest or weed control at 200 ppm [2]

COC(C)C(=O)NCc1ccc(-c2noc(C(F)(F)F)n2)cc1 (centres unmarked) [Compound 1.23, 2-methoxy-N-[[4-[5-(trifluoromethyl)-1,2,4-oxadiazol-3-yl]phenyl]methyl]propanamide]
≥ 80%: pest or weed control at 100 ppm (Uromyces viciae-fabae) | pest or weed control at 200 ppm (Phakopsora pachyrhizi) | pest or weed control at 200 ppm [1] | pest or weed control at 200 ppm [2] | inhibition of growth at 20 ppm [3]
94 to 100 °C: melting point

CCC(CC(=O)NCc1ccc(-c2noc(C(F)(F)F)n2)cc1)C(F)(F)F (centres unmarked) [Compound 1.24, 3-(trifluoromethyl)-N-[[4-[5-(trifluoromethyl)-1,2,4-oxadiazol-3-yl]phenyl]methyl]pentanamide]
≥ 80%: pest or weed control at 100 ppm (Uromyces viciae-fabae)

CNC(=O)NCc1ccc(-c2noc(C(F)(F)F)n2)cc1 [Compound 3.4, 1-methyl-3-[[4-[5-(trifluoromethyl)-l,2,4-oxadiazol-3-yl]phenyl]methyl]urea]
198 to 201 °C: melting point
≥ 80%: pest or weed control at 200 ppm (Phakopsora pachyrhizi) | pest or weed control at 200 ppm [1] | pest or weed control at 200 ppm [2] | inhibition of growth at 20 ppm [3]

CON(C)C(=O)NCCc1ccc(-c2noc(C(F)(F)F)n2)cc1 [Compound 3.5, 1-methoxy-1-methyl-3-[2-[4-[5-(trifluoromethyl)-1,2,4-oxadiazol-3-yl]phenyl]ethyl]urea]
80 to 84 °C: melting point
≥ 80%: pest or weed control at 200 ppm (Phakopsora pachyrhizi) | pest or weed control at 200 ppm [1] | pest or weed control at 200 ppm [2] | inhibition of growth at 20 ppm [3]

CON(C)C(=O)NC(C)(C)c1ccc(-c2noc(C(F)(F)F)n2)cc1 [Compound 3.25, 1-methoxy-1-methyl-3-[1-methyl-1-[4-[5-(trifluoromethyl)-1,2,4-oxadiazol-3-yl]phenyl]ethyl]urea]
≥ 80%: pest or weed control at 200 ppm (Phakopsora pachyrhizi) | pest or weed control at 200 ppm [1] | pest or weed control at 200 ppm [2] | inhibition of growth at 20 ppm [3]
78 to 83 °C: melting point

CON(C)C(=O)NC1(c2ccc(-c3noc(C(F)(F)F)n3)cc2)CC1 [Compound 3.26, 1-methoxy-1-methyl-3-[1-[4-[5-(trifluoromethyl)-1,2,4-oxadiazol-3-yl]phenyl]cyclopropyl]urea]
≥ 80%: pest or weed control at 200 ppm (Phakopsora pachyrhizi) | pest or weed control at 200 ppm [1] | pest or weed control at 200 ppm [2] | inhibition of growth at 20 ppm [3]
81 to 83 °C: melting point
